Reference: patent US11168319B1, “Plant cell culture” (Inari Agriculture Technology, Inc., priority 2017, dated 2021)
Where two headings read alike, the source gives them in different places.

Legend:
maize B73 protoplasts = settings: for Viability (%): 1 mM GSH; for protoplast viability: 288 hours
Experimental: (§1) Separate suspensions of maize B73 and A188 protoplasts (2×10^5 cells per milliliter) were prepared in YPIM B-liquid medium containing various combinations of the added salts calcium chloride, potassium ascorbate, and magnesium chloride or magnesium sulfate. One-half milliliter aliquots of the suspensions were dispensed into a 24-well microtiter plate in the arrangement shown in Table 2, which lists the concentrations of calcium chloride (“Ca”), potassium ascorbate (“A”), and magnesium chloride (“MgCl2”) or magnesium sulfate (“MgSO4”) in millimolar values.
(§2) Viability was judged by Evans blue staining and visualization under a light microscope.
Separate suspensions of maize B73, winter wheat, soy, and strawberry protoplasts (2×10^5 cells per milliliter) were prepared in YPIM B-liquid medium containing calcium chloride at 0, 50, or 100 millimolar. One-half milliliter aliquots of the suspensions were dispensed into a 24-well microtiter plate.
Viability at day 8 of culture was judged by visualization under a light microscope.
Viability at day 13 was judged by Evans blue staining and visualization under a light microscope.
(§3) Separate suspensions of maize B73 protoplasts (2×10^5 cells per milliliter) were prepared in PIM B-liquid medium (identical to YPIM B-medium except with the 6-benzylaminopurine substituted with 0.022 milligrams/L thidiazuron) containing calcium chloride added at 0, 5, 20, 40, 70, or 100 millimolar. One-half milliliter aliquots of the suspensions were dispensed into a 24-well microtiter plate.
Viability was judged by visualization under a light microscope at day 7 and at day 14 of culture.
as §3, with “B73 and A188” for “B73”, “0” for “0, 5, 20, 40, 70,”, “50” for “100”
(§4) Viability was judged by visualization under a light microscope.
(§5) Separate suspensions of maize B73 and A188 protoplasts (2×10^5 cells per milliliter) were prepared in YPIM B-liquid medium containing (a) calcium chloride added at 100 millimolar, or (b) 1 millimolar glutathione, or (c) no added calcium or glutathione. One-milliliter aliquots of the suspensions were dispensed into a 24-well microtiter plate. At 16, 40, 64, and 136 hours of culture, 50-microliter samples were taken for hemocytometer analysis from each well; for the plates containing maize A188 protoplasts, parallel 50-microliter samples were taken from a replicate well at 16, 40, and 64 hours of culture for quantification using a Cellometer cell counter (Nexcelom Bioscience LLC, Lawrence, Mass.).
(§6) Viability was determined by Evans blue staining and quantification using a hemocytometer. Under conditions with high concentrations of calcium, Evans blue can create precipitates that interfere with cell counting; to prevent this, 5 microliters of an EDTA solution was added to the samples from the wells containing 100 millimolar calcium chloride immediately prior to staining.

[1] = test system: maize (Zea mays) alcohol dehydrogenase ADH1 gene; experiment: HDR/NHEJ editing of endogenous gene in maize protoplasts (PCR, KpnI/NdeI); format: cell-based; settings: 0.5 mM GSH
Experimental: A ribonucleoprotein (RNP) was prepared with Cas9 nuclease (Aldevron, Fargo, N. Dak.) and a guide RNA complex designed to edit the first ADH1 exon, consisting of a crRNA (ZmADH1-B) with the sequence
Integrated DNA Technologies, Coralville, Iowa); the donor ssDNA contained three phosphorothioate linkages at each terminus (i.e., the three linkages between the most distal four bases on either end of the strand), and contained a KpnI restriction enzyme digestion site at nucleotide positions 67-72 (shown as underlined text). A double-stranded DNA (purchased from Integrated DNA Technologies, Coralville, Iowa) was designed with a forward strand having the sequence
wherein each strand was phosphorylated on the 5′ end and contained two phosphorothioate linkages at each terminus (i.e., the two linkages between the most distal three bases on either end of the strand); this contained an NdeI restriction site located at nucleotide positions 16-21 of the forward strand (SEQ ID NO:16), shown as underlined font. Insertion of this sequence into the first exon of the target gene ADH1 serves as a proxy readout for efficiency of the NHEJ pathway (i.e., non-homologous repair of the expected DSB).
(§7) Transfection procedures were essentially as described in Example 13. In a first experiment, cells were treated with the HDR ssDNA donor containing a Kpn1 restriction site, or with no donor polynucleotide. After transfection with the editing reagents, the washed and pelleted cells were then resuspended in PIM containing 50 millimolar CaCl2, and then plated in 6-well plates coated with 5% calf serum. The plates were sealed with Parafilm™ and allowed to incubate at 37 degrees Celsius for 1 hour. For the hypoxia treatment, the Parafilm™ was removed and the plates were then placed in a hypoxia chamber having about 5% oxygen by volume at 26 degrees Celsius in the dark. For normoxia treatment, the Parafilm™ was kept in place and the plates were incubated at 26 degrees Celsius in a growth chamber in the dark. Cells were harvested 48 hours and HDR editing efficacy was quantitated by PCR analysis using Phusion™ Flash PCR (Thermo Fisher Scientific, Waltham, Mass.).
as §7, with “In” for “Transfection procedures were essentially as described in Example 13. In”, “second” for “first”, “Kpn1 restriction site, or with the NHEJ dsDNA containing an NdeI” for “Kpn1”, “CaCl2, with or without 0.5 millimolar glutathione (GSH),” for “CaCl2,”, “subjected to” for “HDR editing efficacy was quantitated by”

maize A188 protoplasts = experiment: Protoplast viability (Evans blue staining / light microscope / hemocytometer); format: cell-based; settings: for Viability (%): 1 mM GSH; for protoplast viability: 288 hours
Experimental: as §1, §2
Separate suspensions of maize A188 protoplasts (2×10^5 cells per milliliter) were prepared in YPIM B-liquid medium containing calcium chloride at 0 or 50 millimolar. One-half milliliter aliquots of the suspensions were dispensed into a 24-well microtiter plate.
as §4
as §3, with “B73 and A188” for “B73”, “0” for “0, 5, 20, 40, 70,”, “50” for “100”
as §5, §6

maize B104 protoplasts = experiment: Cell division rate by EdU staining (% EdU); settings: for EdU staining mean %: Ca^2+ 100 mM, glutathione 0.5 mM, 90 h
Experimental: Cell division rates are expressed as “% EdU” (percentage of cells displaying the EdU signal relative to the total cell count).
Cell division was monitored, e.g., by microscopic observations. […] Evidence of cell division was observed by microscopy and included increased cell or protoplast size, bulging membranes, and large groups of organelles occupying the separating daughter cells. Quantification of cell division was carried out using fluorescent staining. […] Cells that are the result of cellular division in the presence of EdU were identified by the resulting green fluorescent signal, which can be quantified by various means, e.g., with a microplate reader, cell counter, or cell sorter.
In a separate experiment, maize HiIIA protoplasts were grown in 24-well plates using YPIM B-liquid medium containing 100 millimolar Ca^2+ and 20 micromolar EdU. Identical plates were incubated under hypoxia (5% oxygen by volume, 26 degrees Celsius, 80% relative humidity) or ambient oxygen (21% oxygen by volume, 26 degrees Celsius, 80% relative humidity). Entire wells (250 microliters) were taken for EdU detection at four time points. The contents of each well was centrifuged and the pellet subjected to the Click-iT™ EdU Alexa Fluor™ 488 Imaging Kit (catalogue number C10337, Thermo Fisher Scientific, Waltham, Mass.) fluorescent labelling protocol. The labelled protoplasts were resuspended in YPIM B-medium and samples analyzed on a Nexcelom Cellometer (Nexcelom Bioscience LLC, Lawrence, Mass.). This assay was developed to detect the EdU signal from the nucleus of a cell resulting from cell division, as well as the fluorescent signal from chloroplasts as a measure of total cell count.
Entire wells (1000 microliters) were taken for EdU detection at three time points; analyses were of duplicate samples of each of two replicate wells.

[2] = test system: maize B73 and A188 protoplasts; experiment: Protoplast viability, statements pooled for both maize lines; format: cell-based; settings: after 288 hours, various ascorbate concentrations (0.1-1 mM)
Experimental: as §1, §2
as §5, with “One-milliliter aliquots of the suspensions were dispensed into a 24-well microtiter plate.” left out
Viability was determined by Evans blue staining and quantification using a hemocytometer. […]

[3] = 100 mM added salt, YPIM B- medium

N[C@@H](CCC(=O)N[C@@H](CS)C(=O)NCC(=O)O)C(=O)O [glutathione] was tested, and the “Viability (%)” value (maize B73 protoplasts; 0 hours, hemocytometer) was 90%, the “Viability (%)” value (maize B73 protoplasts; 16 hours) was 77% and the “Viability (%)” value (maize B73 protoplasts; 40 hours) was 72%. For the same compound, the “Viability (%)” value (maize B73 protoplasts; 64 hours) was 48%, the “Viability (%)” value (maize B73 protoplasts; 136 hours) was 24% and the “% KpnI (HDR)” value ([1]; editing reagents: Null) was 0.00%. For the same compound, the “% NdeI (NHEJ)” value ([1]; editing reagents: Null) was 0.00%, the “% KpnI (HDR)” value ([1]; editing reagents: RNP only) was 0.00% and the “% NdeI (NHEJ)” value ([1]; editing reagents: RNP only) was 0.00%. The “% KpnI (HDR)” value ([1]; editing reagents: RNP plus HDR donor) was 5.0%, the “% KpnI (HDR)” value ([1]; editing reagents: RNP plus HDR donor, listed as GSH) was 5.00% and the “% NdeI (NHEJ)” value ([1]; editing reagents: RNP plus NHEJ donor) was “about 15%”. For the same compound, the “% NdeI (NHEJ)” value ([1]; editing reagents: RNP plus NHEJ donor, listed as GSH) was 15.01%, the “Viability (%)” value (maize A188 protoplasts; 0 hours, hemocytometer) was 90% and the “Viability (%)” value (maize A188 protoplasts; 16 hours) was 69%. For the same compound, the “Viability (%)” value (maize A188 protoplasts; 40 hours) was 50%, the “Viability (%)” value (maize A188 protoplasts; 64 hours) was 50% and the “Viability (%)” value (maize A188 protoplasts; 136 hours) was 42%. For the same compound, the “EdU staining mean %” value (maize B104 protoplasts; O2 5%) was 18.4%, the “EdU staining mean %” value (maize B104 protoplasts; O2 21%) was 16.9% and the “change in rate of cell division (% EdU)” value (maize B104 protoplasts; addition of 0.5 millimolar glutathione, hypoxic conditions, 100 mM Ca^2+) was “little change”. The “increase in rate of cell division (% EdU)” value (maize B104 protoplasts; addition of 0.5 millimolar glutathione, normal atmospheric oxygen, 100 mM Ca^2+) was “about 2 fold”.

In the case of [Cl-].[Cl-].[Mg+2] [magnesium chloride], the protoplast viability (maize B73 protoplasts; [3]) is reported as “much higher viability than any well”, the protoplast viability (maize A188 protoplasts; [3]) is reported as “about 70%” and the plant protoplast viability (plant protoplasts; about 40 millimolar or about 50 millimolar) is reported as “Even higher levels of plant protoplast viability”. The protoplast viability (plant protoplasts; between or about 50 to about 100 millimolar, several titration experiments) was “greatest improvement in protoplast viability” and the plant protoplast viability (plant protoplasts; culture medium contains about 30 millimolar) was “Beneficial effects”.

O=S(=O)([O-])[O-].[Mg+2] [magnesium sulfate] was tested, and the protoplast viability (maize B73 protoplasts; 50 or 100 mM) was “only a modest improvement”, the protoplast viability (maize A188 protoplasts; 50 mM added salt, YPIM B- medium) was 30-40% and the protoplast viability (maize A188 protoplasts; 50 or 100 mM) was “only a modest improvement”.

In the case of O=C1O[C@H]([C@@H](O)CO)C([O-])=C1O.[K+] [potassium ascorbate], the protoplast viability (maize A188 protoplasts; 0.2 millimolar and above added to wells with added calcium) is reported as “slightly decrease viability” and the viability [2] is reported as “only slight effects”.
